We go through two substances from publication PMC2867956, “Interdomain Interactions Control Ca^2+-Dependent Potentiation in the Cation Channel TRPV4” (PLoS ONE, 2010).

Entries after “also recorded” stand apart in the source; their conditions may differ. No end group written: not given here.

One series deals with TRPV4 C2 fragment. The series can be described thus: AlphaScreen interdomain interaction with C2. Format: binding, human. The settings on record: 10 nM C2-biotin, N2-Flag 30 pM to 1.5 µM, N3 data not shown. The text has this:
(§1) First, we did a complementation experiment to test whether a CaM molecule that binds to the C2 fragment of TRPV4 through its C-lobe can form an additional interaction with another CaM binding domain thus forming a ternary complex. […] We used an AlphaScreen-based proximity assay (Fig. 2, Methods S1) in which the acceptor beads were coated with the C-terminal fragment C2-Flag, and the donor beads either with the N-terminal CaM binding peptide P2-biotin, or, as a negative control, with C2-biotin. The interaction between the proteins was measured in the presence of increasing CaM concentrations in 100 µM Ca^2+ or 1 mM EGTA (Fig. 3A).
In an AlphaScreen interaction experiment, donor and acceptor beads were incubated with 10 nM C2-biotin and N2-Flag at concentrations ranging from 30 pM to 1.5 µM, respectively (Fig. 3C).
(§2) Proteins were expressed in E. coli, affinity purified and biotinylated if applicable (for details see Methods S1). For protein interaction measurements, a proximity assay system based on the AlphaScreen technology (PerkinElmer) was used (see Methods S1). Briefly, streptavidin-coated AlphaScreen donor and anti-Flag acceptor beads at a final concentration of 16.7 µg/ml were incubated in a 384-well plate format (OptiPlate-384, PerkinElmer) with C2-GST-biotin or P2-biotin and the respective Flag-tagged interaction protein at concentrations of 10 nM, if not otherwise indicated. Assay buffer conditions were 50 mM Tris, pH 7.4, 100 mM KCl, and 0.1% BSA. After incubation for 90 min at room temperature, the AlphaScreen output signal was recorded in a Fusion alpha FP instrument (PerkinElmer) at 2 s reading time per well. AlphaScreen signals are given as mean±SEM in counts per second (cps) units.
The expression plasmids containing the cDNA for CaM or TRPV4 fragments in the pGEX-2TK vector (Amersham) or a modified derivative that contains an in-frame Flag epitope 5’ to the multiple cloning site were transformed into the BL21(DE3) Escherichia coli host, and protein expression was induced by 200 mg/ml IPTG at an OD600 of 0.6. […] The GST-Flag fusion proteins were eluted with 50 mM Tris, pH 8.5, 100 mM KCl, and 10 mM glutathione. […] The purity of all proteins was confirmed by SDS-polyacrylamide gel electrophoresis and Coomassie staining, and the protein concentration determined by the method according to Bradford using an albumin concentration standard. […]
To establish an improved interaction assay, that allows the quantification of protein interactions on a medium to high throughput scale, a commercially available proximity assay system based on the AlphaScreen (Amplified Luminescent Proximity Homogenous Assay) technology (PerkinElmer) was modified. […]
Background: Alpha assays give light when donor and acceptor beads are brought close together.

The next series deals with P2/C2 complex. Put plainly: AlphaScreen competition, C2-Flag/P2-biotin complex. It counts as binding, human. The settings on record: read-out: IC50, competition of P2/C2 complex; C2-Flag and P2-biotin; untagged competitor; AlphaScreen pH 7.4, 90 min room temperature.
Description: as §1
(§3) AlphaScreen acceptor and donor beads were coated with C2-Flag and either P2-biotin (Fig. 7D) or CaM-biotin at 100 µM Ca^2+ (Fig. 7E) and incubated with untagged C2 or N2 competitor proteins at the indicated concentrations. […] A similar finding was observed when the CaM/C2 interaction was subjected to competition by C2 or N2 (Fig. 7E).
Proteins were expressed in E. coli, affinity purified and biotinylated if applicable (for details see Methods S1). For protein interaction measurements, a proximity assay system based on the AlphaScreen technology (PerkinElmer) was used (see Methods S1). […] After incubation for 90 min at room temperature, the AlphaScreen output signal was recorded in a Fusion alpha FP instrument (PerkinElmer) at 2 s reading time per well. […]

The test system of a further series is CaM/C2 complex. Put plainly: AlphaScreen competition, C2-Flag/CaM-biotin complex. The settings on record: C2-Flag and CaM-biotin at 100 µM Ca^2+; untagged competitor; AlphaScreen pH 7.4, 90 min room temperature. It counts as binding, human. The protocol:
as §3, §2
Proteins used for competition experiments were subjected to gel filtration into the assay buffer using a PD-10 column (Amersham).

A further series has as its system N2. The series can be described thus: Gel filtration, N2 dimerization. The settings on record: non-denaturing, 50 mM sodium phosphate pH 7.0, 200 mM KCl. Format: physicochemical, human. On the procedure: Purified proteins or gel filtration standard (BioRad) were loaded onto a Bio-Sil 250 (BioRad) size exclusion chromatography column and eluted with a buffer containing 50 mM sodium phosphate, pH 7.0 and 200 mM KCl. The elution profile was recorded by continuous absorption measurement at 280 nm.
For orientation: In gel filtration, larger molecules generally elute earlier.

A further series deals with wild type N2 fragment. Put plainly: AlphaScreen N-terminal homologous interaction, wild type N2. Format: binding, human. The settings on record: nominally Ca^2+-free buffers. The protocol:
(§4) Proteins were expressed in E. coli, affinity purified and biotinylated if applicable (for details see Methods S1). For protein interaction measurements, a proximity assay system based on the AlphaScreen technology (PerkinElmer) was used (see Methods S1). […] Assay buffer conditions were 50 mM Tris, pH 7.4, 100 mM KCl, and 0.1% BSA. After incubation for 90 min at room temperature, the AlphaScreen output signal was recorded in a Fusion alpha FP instrument (PerkinElmer) at 2 s reading time per well. AlphaScreen signals are given as mean±SEM in counts per second (cps) units.

The subject of the next series is N2 mutant WIA. The series can be described thus: AlphaScreen N-terminal homologous interaction, N2 mutant WIA. Format: binding, human. The settings on record: nominally Ca^2+-free buffers. On the procedure: as §4

For the substance “N2: N-terminal TRPV4 fragment, residues 79-138 (VPNPIDLLESTLYESSVVPGPKKAPMDSLFDYGTYRHHSSDNKRWRKKIIEKQPQSPKAP; also: Flag tag; UniProt Q9HBA0 79-138, looked up, fragment)”, the “interaction with C2” value in the series with TRPV4 C2 fragment was “interdomain interaction could also be shown”. Moreover, the IC50 was 166 nM in the series on P2/C2 complex and 522 nM in the series with CaM/C2 complex. For the same substance, the oligomeric state result in the series on N2 is “a single peak was detected at a size that corresponds to the dimeric form; also recorded: monophasic elution profile with an apparent molecular size that corresponds with a dimeric form of the protein”.

“P2: N-terminal CaM binding peptide of TRPV4, residues 117-136”: in the series with wild type N2 fragment, the “binding of P2 to wild type N2” value is “bound strongly”. Further, the “binding of P2 to N2 mutant WIA” value in the series with N2 mutant WIA is “bound strongly”.
